Reference: PubChem BioAssay AID2060495 (Molecular Pharmacology Branch, DTP, NCI, 2025)

Test system: 521955-158-R2-J5-PDC complex spheroid viability
Assay: Anticancer human tumor 521955-158-R2-J5-PDC patient-derived pancreatic carcinoma cell line growth inhibition [GQUAD]
Details: for IC50: curve of first compound; for viability, T/C: stronger effect = lower value
Summary of the method: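 Viability of tumor cells grown as complex spheroids with endothelial and stromal cells, exposed to drug combinations. Top concentration at or near clinical Cmax (else 10 microM), diluted in half-log increments.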

[1] = second compound 0.0316 µM, first compound 0.0316 µM
[2] = second compound 0.0316 µM, first compound 0.1 µM
[3] = second compound 0.0316 µM, first compound 0.316 µM
[4] = second compound 0.0316 µM, first compound 1 µM
[5] = second compound 0.0316 µM, first compound 3.16 µM
[6] = second compound 0.0316 µM, first compound 10 µM
[7] = second compound 0.1 µM, first compound 0.0316 µM
[8] = second compound 0.1 µM, first compound 0.1 µM
[9] = second compound 0.1 µM, first compound 0.316 µM
[10] = second compound 0.1 µM, first compound 1 µM
[11] = second compound 0.1 µM, first compound 3.16 µM
[12] = second compound 0.1 µM, first compound 10 µM
[13] = second compound 0.316 µM, first compound 0.0316 µM
[14] = second compound 0.316 µM, first compound 0.1 µM
[15] = second compound 0.316 µM, first compound 0.316 µM
[16] = second compound 0.316 µM, first compound 1 µM
[17] = second compound 0.316 µM, first compound 3.16 µM
[18] = second compound 0.316 µM, first compound 10 µM
[19] = second compound 1 µM, first compound 0.0316 µM
[20] = second compound 1 µM, first compound 0.1 µM
[21] = second compound 1 µM, first compound 0.316 µM
[22] = second compound 1 µM, first compound 1 µM
[23] = second compound 1 µM, first compound 3.16 µM
[24] = second compound 1 µM, first compound 10 µM
[25] = second compound 3.16 µM, first compound 0.0316 µM
[26] = second compound 3.16 µM, first compound 0.1 µM
[27] = second compound 3.16 µM, first compound 0.316 µM
[28] = second compound 3.16 µM, first compound 1 µM
[29] = second compound 3.16 µM, first compound 3.16 µM
[30] = second compound 3.16 µM, first compound 10 µM
[31] = second compound 10 µM, first compound 0.0316 µM
[32] = second compound 10 µM, first compound 0.1 µM
[33] = second compound 10 µM, first compound 0.316 µM
[34] = second compound 10 µM, first compound 1 µM
[35] = second compound 10 µM, first compound 3.16 µM
[36] = second compound 10 µM, first compound 10 µM
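Also: spheroids exposed to agents for one week before reading.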
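For viability, T/C in this document: 100% = DMSO vehicle control viability.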

C#Cc1c(F)ccc2cc(O)cc(-c3ncc4c(N5CC6CCC(C5)N6)nc(OCC56CCCN5CC(F)C6)nc4c3F)c12 (stereo unspecified) + Cc1cnc(CNC(=O)c2c(=O)c3ccc(N4CCCN(C)CC4)nc3n3c2sc2ccccc23)cn1
IC50 (second compound 0.0316 µM): < 31.6 nM | IC50 (second compound 0.1 µM): < 31.6 nM | IC50 (second compound 0.316 µM): < 31.6 nM | IC50 (second compound 1 µM): < 31.6 nM | IC50 (second compound 3.16 µM): < 31.6 nM | IC50 (second compound 10 µM): < 31.6 nM | viability, T/C [1]: 35.4% | viability, T/C [2]: 31.3% | viability, T/C [3]: 26.2% | viability, T/C [4]: 19.1% | viability, T/C [5]: 17.9% | viability, T/C [6]: 13.9% | viability, T/C [7]: 24.5% | viability, T/C [8]: 26.6% | viability, T/C [9]: 21.4% | viability, T/C [10]: 18.3% | viability, T/C [11]: 17.2% | viability, T/C [12]: 13.3% | viability, T/C [13]: 19.3% | viability, T/C [14]: 20% | viability, T/C [15]: 18.3% | viability, T/C [16]: 16.1% | viability, T/C [17]: 14.1% | viability, T/C [18]: 11.5% | viability, T/C [19]: 11.3% | viability, T/C [20]: 12.6% | viability, T/C [21]: 10.9% | viability, T/C [22]: 8.41% | viability, T/C [23]: 9.79% | viability, T/C [24]: 5.56% | viability, T/C [25]: 2.92% | viability, T/C [26]: 0.7% | viability, T/C [27]: 2.89% | viability, T/C [28]: 0.31% | viability, T/C [29]: 0.11% | viability, T/C [30]: 0.08% | viability, T/C [31]: 0.08% | viability, T/C [32]: 0.7% | viability, T/C [33]: 0.19% | viability, T/C [34]: 0.15% | viability, T/C [35]: 0.18% | viability, T/C [36]: 0.16%

O=C(c1cc(Cc2n[nH]c(=O)c3ccccc23)ccc1F)N1CCN(C(=O)C2CC2)CC1 + CN(C)c1ccc(Nc2c3ccc(NC(=O)CCN4CCCC4)cc3nc3cc(NC(=O)CCN4CCCC4)ccc23)cc1
IC50 (second compound 0.0316 µM): > 10000 nM | IC50 (second compound 0.1 µM): > 10000 nM | IC50 (second compound 0.316 µM): > 10000 nM | IC50 (second compound 1 µM): > 10000 nM | IC50 (second compound 3.16 µM): > 10000 nM | IC50 (second compound 10 µM): > 10000 nM | viability, T/C [1]: 93.1% | viability, T/C [2]: 85.2% | viability, T/C [3]: 94% | viability, T/C [4]: 83.5% | viability, T/C [5]: 97.1% | viability, T/C [6]: 85.5% | viability, T/C [7]: 94.4% | viability, T/C [8]: 89.4% | viability, T/C [9]: 97.5% | viability, T/C [10]: 86.6% | viability, T/C [11]: 88.3% | viability, T/C [12]: 71.9% | viability, T/C [13]: 93% | viability, T/C [14]: 90.9% | viability, T/C [15]: 91% | viability, T/C [16]: 85.4% | viability, T/C [17]: 92.6% | viability, T/C [18]: 84.1% | viability, T/C [19]: 90% | viability, T/C [20]: 82.7% | viability, T/C [21]: 92.3% | viability, T/C [22]: 84.5% | viability, T/C [23]: 102% | viability, T/C [24]: 72.8% | viability, T/C [25]: 75.4% | viability, T/C [26]: 90.5% | viability, T/C [27]: 67.1% | viability, T/C [28]: 77.4% | viability, T/C [29]: 80% | viability, T/C [30]: 71.5% | viability, T/C [31]: 57% | viability, T/C [32]: 64.5% | viability, T/C [33]: 68.7% | viability, T/C [34]: 56.5% | viability, T/C [35]: 48.7% | viability, T/C [36]: 63%

CCCS(=O)(=O)Nc1ccc(F)c(C(=O)c2c[nH]c3ncc(-c4ccc(Cl)cc4)cc23)c1F + Cc1cnc(CNC(=O)c2c(=O)c3ccc(N4CCCN(C)CC4)nc3n3c2sc2ccccc23)cn1
IC50 (second compound 0.0316 µM): 9260 nM | IC50 (second compound 0.1 µM): > 10000 nM | IC50 (second compound 0.316 µM): < 31.6 nM | IC50 (second compound 1 µM): < 31.6 nM | IC50 (second compound 3.16 µM): < 31.6 nM | IC50 (second compound 10 µM): < 31.6 nM | viability, T/C [1]: 79.5% | viability, T/C [2]: 63.5% | viability, T/C [3]: 113% | viability, T/C [4]: 113% | viability, T/C [5]: 109% | viability, T/C [6]: 46.8% | viability, T/C [7]: 52.4% | viability, T/C [8]: 69.6% | viability, T/C [9]: 59.4% | viability, T/C [10]: 64% | viability, T/C [11]: 61.8% | viability, T/C [12]: 39% | viability, T/C [13]: 32% | viability, T/C [14]: 37.3% | viability, T/C [15]: 27.1% | viability, T/C [16]: 32.6% | viability, T/C [17]: 35.7% | viability, T/C [18]: 26.4% | viability, T/C [19]: 17.8% | viability, T/C [20]: 18.2% | viability, T/C [21]: 17.9% | viability, T/C [22]: 18.9% | viability, T/C [23]: 24.2% | viability, T/C [24]: 16.8% | viability, T/C [25]: 12.7% | viability, T/C [26]: 14.3% | viability, T/C [27]: 16.8% | viability, T/C [28]: 16.1% | viability, T/C [29]: 20.7% | viability, T/C [30]: 0.32% | viability, T/C [31]: 9.58% | viability, T/C [32]: 16.2% | viability, T/C [33]: 16.9% | viability, T/C [34]: 18.7% | viability, T/C [35]: 21.4% | viability, T/C [36]: 0.33%
